Data as given in patent publication US12453709B2, “Compositions and methods for treating autism” (priority 2013, dated 2025).

Key:
[1] = test system: patients qualified under the DSM-5 definition of autism; assay: Example 4: DSM-V score; format: in vivo, human; design: DSM-V TOTAL / DSM-V social / DSM-V communication / DSM-V relationships / DSM-V behavior: scale not given here; conditions: for DSM V relationships / DSM V communication / DSM V social / DSM V behavior / DSM V TOTAL: PT RS; for DSM V relationships: initial 1; for DSM V communication / DSM V social: initial 5; for DSM V TOTAL: initial 21
Method: α-methyl-DL tyrosine (AMPT) was administered to 3 patients. This group of patients was qualified under the DSM-5 definition of autism and treated. The Aberrant Behavior Checklist-Community (ABC-C), Autism Diagnostic Observation Schedule (ADOS), Conners Parent Rating Scale (CPRS), and General Clinical Impressions scale were used to assess the disease. Videos were taken at each visit.

[2] = test system: male patients diagnosed with autism; assay: Study HT 02-121: Clinical Global Impression (CGI) rating scales; format: in vivo, human; conditions: for CGI-I Mean Change from Baseline / CGI-I Treatment effect versus placebo / CGI-I change from Baseline, median / CGI-S Mean Change from Baseline / CGI-S Treatment effect versus placebo / CGI-S change from Baseline, median: Week 4/LOCF
Method: This clinical study was a randomized double-blind, placebo-controlled two-cohort, 4-week dose-escalation study that incorporated two open-label treatment groups to assess the safety and efficacy of L1-79 100 mg and 200 mg TID in male patients between the ages of […] years of age diagnosed with autism. The first cohort of 20 patients was comprised of three groups of patients: The first group of five patients received open-label L1-79 100 mg TID and underwent PK and EKG assessments. The remaining two groups in this cohort consisted of 15 patients randomized on a 2:1 basis to receive L1-79 100 mg TID or placebo. The PK and safety data from the open-label L1-79 100 mg TID group was submitted to FDA for review and acceptance before the second cohort was enrolled. The second cohort was procedurally identical to the first. The second cohort of 20 patients was comprised of the same three groups of patients but a dose of 200 mg TID was used instead of 100 mg TID. The key inclusion criteria were as follows: (1) males between 13 and 21 years of age, (2) DSM-5 compliant diagnosis of autism spectrum disorder, confirmed by the Autistic Diagnosis Interview Review (ADIR), and by an ADOS-2 score consistent with a diagnosis of autism, (3) must have been stable on no more than one concomitant medication and no planned changes in psychosocial interventions during the study.
The primary efficacy endpoint was the determination of the clinical improvement by the investigator as documented by the Clinical Global Impression (CGI) rating scales. Additional efficacy endpoints included: (1) changes from baseline in the Socialization and Communication Domains of the Vineland Adaptive Behavior Scales, Second Edition (VABS II) parent/caregiver rating form, (2) changes from baseline in the ADOS-2 Total Score and subscores, (3) changes in the Social Responsiveness Scale, Second Edition (SRS-2) Total Score and subscales, (4) changes in the ABC-C domains, (5) changes in the Repetitive Behavior Scale-Revised (RBS-R) Total Score and subscales. Given the exploratory design of this study only descriptive statistics were planned. […]
Responder definitions for CGI-S were defined as improvement only (instead of improvement or no change) since, unlike the other measures which were performed weekly, the CGI-S requires the clinician to give an overall assessment of the patients' clinical symptom severity based on all of the outcome measures and their movement over the entirety of the study.

CC(N)(Cc1ccc(O)cc1)C(=O)O (racemic) [L1-79, α-methyl-DL-tyrosine]
DSM-V social ([1]; PT LR, Day 7, initial 9): 5 | DSM-V communication ([1]; PT LR, Day 7, initial 10): 4 | DSM-V relationships ([1]; PT LR, Day 7, initial 11): 4 | DSM-V behavior ([1]; PT LR, Day 7, initial 12): 12 | DSM-V TOTAL ([1]; PT LR, Day 7, initial 42): 27 | DSM-V social ([1]; PT LR, Day 14, initial 9): 3 | DSM-V communication ([1]; PT LR, Day 14, initial 10): 3 | DSM-V relationships ([1]; PT LR, Day 14, initial 11): 3 | DSM-V behavior ([1]; PT LR, Day 14, initial 12): 12 | DSM-V TOTAL ([1]; PT LR, Day 14, initial 42): 21 | DSM-V social ([1]; PT LR, Day 21, initial 9): 2 | DSM-V communication ([1]; PT LR, Day 21, initial 10): 2 | DSM-V relationships ([1]; PT LR, Day 21, initial 11): 2 | DSM-V behavior ([1]; PT LR, Day 21, initial 12): 12 | DSM-V TOTAL ([1]; PT LR, Day 21, initial 42): 18 | DSM-V social ([1]; PT LR, Day 28, initial 9): 2 | DSM-V communication ([1]; PT LR, Day 28, initial 10): 2 | DSM-V relationships ([1]; PT LR, Day 28, initial 11): 2 | DSM-V behavior ([1]; PT LR, Day 28, initial 12): 12 | DSM-V TOTAL ([1]; PT LR, Day 28, initial 42): 18 | DSM V relationships ([1]; Day 7): 0 | DSM V communication ([1]; Day 7): 4 | DSM V social ([1]; Day 7): 3 | DSM V behavior ([1]; Day 7, initial 10): 8 | DSM V TOTAL ([1]; Day 7): 15 | DSM V relationships ([1]; Day 14): 0 | DSM V communication ([1]; Day 14): 1.5 | DSM V social ([1]; Day 14): 1.5 | DSM V behavior ([1]; Day 14, initial 10): 5 | DSM V TOTAL ([1]; Day 14): 8 | DSM V relationships ([1]; Day 21): 0 | DSM V communication ([1]; Day 21): 1.5 | DSM V social ([1]; Day 21): 1 | DSM V behavior ([1]; Day 21, initial 10): 4 | DSM V TOTAL ([1]; Day 21): 6.5 | DSM V relationships ([1]; Day 28): 0 | DSM V communication ([1]; Day 28): 1.5 | DSM V social ([1]; Day 28): 1 | DSM V behavior ([1]; Day 28, initial 10): 3 | DSM V TOTAL ([1]; Day 28): 5.5 | DSM-V communication ([1]; PT WC, Day 7, initial 3): 0 | DSM-V relationships ([1]; PT WC, Day 7, initial 6): 2 | DSM-V social ([1]; PT WC, Day 7, initial 6): 6 | DSM-V behavior ([1]; PT WC, Day 7, initial 11): 9 | DSM-V TOTAL ([1]; PT WC, Day 7, initial 26): 17 | DSM-V communication ([1]; PT WC, Day 14, initial 3): 0 | DSM-V relationships ([1]; PT WC, Day 14, initial 6): 2 | DSM-V social ([1]; PT WC, Day 14, initial 6): 4 | DSM-V behavior ([1]; PT WC, Day 14, initial 11): 8 | DSM-V TOTAL ([1]; PT WC, Day 14, initial 26): 14 | DSM-V communication ([1]; PT WC, Day 21, initial 3): 0 | DSM-V relationships ([1]; PT WC, Day 21, initial 6): 2 | DSM-V social ([1]; PT WC, Day 21, initial 6): 2 | DSM-V behavior ([1]; PT WC, Day 21, initial 11): 8 | DSM-V TOTAL ([1]; PT WC, Day 21, initial 26): 12 | DSM-V communication ([1]; PT WC, Day 28, initial 3): 0 | DSM-V relationships ([1]; PT WC, Day 28, initial 6): 2 | DSM-V social ([1]; PT WC, Day 28, initial 6): 2 | DSM-V behavior ([1]; PT WC, Day 28, initial 11): 7 | DSM-V TOTAL ([1]; PT WC, Day 28, initial 26): 11 | responder analysis for CGI-S ([2]; 100 mg and 200 mg groups vs placebo, Week 4): clear dose response trend of improvement | mean improvement on overall CGI-S versus placebo and 100 mg groups ([2]; 200 mg group, Week 4 or LOCF): 0.5 point | CGI-I Mean Change from Baseline ([2]; DB 100 mg TID): −0.6 | CGI-I Treatment effect versus placebo ([2]; DB 100 mg TID): −0.4 | CGI-I change from Baseline, median ([2]; DB 100 mg TID): −1, −1, 0 | CGI-S Mean Change from Baseline ([2]; DB 100 mg TID): −0.3 | CGI-S Treatment effect versus placebo ([2]; DB 100 mg TID): −0.0 | CGI-S change from Baseline, median ([2]; DB 100 mg TID): −1, −0, 0 | CGI-I Mean Change from Baseline ([2]; DB 200 mg TID): −0.5 | CGI-I Treatment effect versus placebo ([2]; DB 200 mg TID): −0.3 | CGI-I change from Baseline, median ([2]; DB 200 mg TID): −1, 0, 0 | CGI-S Mean Change from Baseline ([2]; DB 200 mg TID): −0.8 | CGI-S Treatment effect versus placebo ([2]; DB 200 mg TID): −0.5 | CGI-S change from Baseline, median ([2]; DB 200 mg TID): −2, −1, 0 | change in the CGI-S compared to baseline ([2]; less than one month of treatment, blinded assessment): nearly one-point change
